Here are results for 52 compounds from PubChem BioAssay AID1996.

≈ marks a conversion by molar mass, not a printed value. Non-standard residues stand in square brackets, D forms with d. Residues, ends and D or L forms follow the SMILES beside them. *: point of attachment. Tic = O=C(O)[C@@H]1Cc2ccccc2CN1; NHPr = CCCN*

For this series the following is noted: buffer; pH 7.4; 200.0 µM.
As for `Cc1ccc(C)c(NC(=O)CCN2CC(C)CC(C)C2)c1` (configuration not stated), the solubility (kinetic) (as a rule, the concentration staying in solution when a stock, usually in DMSO, is diluted into the medium) was determined as 32.7 µg/mL (≈ 113 µM).

`O=C(Cc1ccccc1)N/N=C/c1cccnc1`: the kinetic solubility is above 35.9 µg/mL.

On to `COc1ccc(NC(=O)CCC(=O)c2cccs2)cc1Cl`, for which the kinetic solubility is 6.5 µg/mL (≈ 20.1 µM).

Consider `O=C(COC(=O)CNC(=O)c1ccccc1Cl)NC1CC1`, for which the solubility (kinetic) was 37.4 µg/mL (≈ 120 µM). Against the preceding compound, the solubility kinetic is about 5.8-fold higher.

`COC(=O)c1ccccc1NC(=S)N1CCN(c2ccccc2)CC1` yielded a kinetic solubility of 13.4 µg/mL (≈ 37.7 µM).

Take `CC(C)c1nc2cc(C(=O)NC(C)c3cnn(C)c3)ccc2o1` (configuration not stated): the kinetic solubility is above 46.9 µg/mL.

For the compound `CC1CN(C(=O)c2ccc(COc3ccccc3Cl)o2)CC(C)O1` (configuration not stated), the solubility (kinetic) was above 52.5 µg/mL.

In turn, `CC(=O)Nc1ccc(SCc2ncc(-c3ccccc3)o2)cc1` yielded a solubility (kinetic) of 45.3 µg/mL (≈ 140 µM).

In turn, `O=C(NCC1CCCO1)c1c(O)nc2sccn2c1=O` (configuration not stated) registered a solubility (kinetic) above 44.3 µg/mL.

Consider `O=C1C2CCCN2C(c2ccco2)N1c1ccc(F)cc1` (configuration not stated), for which the solubility (kinetic) is above 42.9 µg/mL.

On to `CC(=O)Nc1cccc(NC(=O)Cc2ccc3ccccc3c2)c1`, for which the kinetic solubility is 0.9 µg/mL (≈ 2.83 µM).

Regarding `CCCc1nnc(NC(=O)CCC(=O)NC2CC2)s1`, the kinetic solubility is above 42.4 µg/mL.

For `O=C(Cc1ccccc1F)Nc1ccc(S(=O)(=O)N2CCCC2)cc1`, the solubility (kinetic) is 44.9 µg/mL (≈ 124 µM).

Compound `Cc1ccc(-n2c3nc(=O)n(C)c(=O)c-3cc3ccccc32)cc1` returned a kinetic solubility of 12.3 µg/mL (≈ 38.8 µM).

`Cc1ccc(NC(=O)CN(C)C(=O)CSc2ccccc2F)cc1` gave a solubility (kinetic) of 5.2 µg/mL (≈ 15 µM). Against the preceding compound, the solubility kinetic is about 2.4-fold lower.

Take `COc1ccc(CCNC(=O)c2ccc([N+](=O)[O-])cc2)cc1`: the solubility (kinetic) came to 5.3 µg/mL (≈ 17.6 µM). The solubility kinetic values of the last two compounds are within 1.5-fold of each other.

The compound `CC(=O)c1sccc1NC(=O)c1ccccc1C(=O)O` gave a kinetic solubility above 43.4 µg/mL.

`O=C(c1ccc(Cl)cc1[N+](=O)[O-])N1CCc2ccccc2C1` gave a kinetic solubility of 6.1 µg/mL (≈ 19.3 µM).

The compound `CC(=O)Nc1c(C(=O)Nc2ccc3c(c2)OCO3)oc2ccccc12` returned a kinetic solubility of 3.2 µg/mL (≈ 9.46 µM).

Compound `Cn1c(-c2ccccc2)c[n+]2c1CCCCC2.[Br-]` displayed a kinetic solubility above 46.1 µg/mL.

Compound `Cn1c(=O)c(Sc2ccccc2)c(O)c2ccccc21` yielded a kinetic solubility above 42.5 µg/mL.

On to `CCOC(=O)c1cc(=O)[nH]c2ccccc12`, for which the solubility (kinetic) turned out to be 30.6 µg/mL (≈ 141 µM).

In the case of `C/C(O)=c1/c(=O)nc2cccc3c2=c1c1ccccc1c3=O`, the kinetic solubility was below 0.6 µg/mL.

`Fc1cccc(NC(=S)NC2CCCCCCC2)c1` gave a kinetic solubility of 2.9 µg/mL (≈ 10.3 µM).

The compound `CCCNC(=O)[C@@H]1CCCN1C(=O)[C@@H]1Cc2ccccc2CN1.Cl` (H-[Tic]-Pro-NHPr) gave a kinetic solubility above 52.8 µg/mL.

In the case of `O=C(COC(=O)c1ccc(Br)o1)Nc1cccc(S(=O)(=O)N2CCCCC2)c1`, the solubility (kinetic) turned out to be 9.3 µg/mL (≈ 19.7 µM).

The compound `CC(C)(C)S(=O)(=O)c1cnc(-c2cnccn2)nc1N` came in with a kinetic solubility above 44 µg/mL.

Turning to `COc1ccc(Cl)cc1NC(=O)C1(c2cccs2)CCOCC1`, the solubility (kinetic) was 21.7 µg/mL (≈ 61.7 µM).

In turn, `O=C(N[C@@H](Cc1ccccc1)C(=O)O)c1cccs1` gave a solubility (kinetic) above 41.3 µg/mL.

Turning to `COc1cccc(OCCn2cc(C=O)c3ccccc32)c1`, the kinetic solubility is 12.2 µg/mL (≈ 41.3 µM).

Regarding `O=C(CCc1ccccc1)Nc1sc2c(c1C(=O)O)CCCC2`, the solubility (kinetic) was above 49.4 µg/mL.

`CCOC(=O)N1CCN(C(=O)c2ccc3[nH]c(C)c(C)c3c2)CC1` returned a solubility (kinetic) above 49.4 µg/mL.

In turn, `CC1CCCN(C(=O)COc2ccc(Nc3ccccc3)cc2)C1` (configuration not stated) came in with a solubility (kinetic) of 6.2 µg/mL (≈ 19.1 µM).

As for `CN(C(=O)COC(=O)c1cc2ccccc2cc1O)c1ccccc1`, the kinetic solubility amounted to 3.4 µg/mL (≈ 10.1 µM). This solubility kinetic is about 1.8-fold lower than that of the compound before.

With `COC(=O)CCCC(=O)N1CCC(CCC(=O)NC2CC2)CC1`, the solubility (kinetic) was above 48.7 µg/mL.

`N#Cc1ccc(S(=O)(=O)N2CCc3[nH]c4ccc(F)cc4c3C2)cc1` came in with a solubility (kinetic) below 0.3 µg/mL.

On to `O=[N+]([O-])c1ccccc1OCCN1CCOCC1`, for which the solubility (kinetic) is above 37.8 µg/mL.

Consider `O=C1c2ccccc2NC(c2ccccc2O)N1c1ccc(F)cc1` (configuration not stated), for which the solubility (kinetic) is 5.5 µg/mL (≈ 16.4 µM).

Turning to `CN(CC(=O)Nc1c(Cl)cccc1Cl)C(=O)c1cccn1C`, the solubility (kinetic) is above 51 µg/mL.

In turn, `C=CCc1ccccc1OCC(O)CNC(=O)c1ccccc1C(=O)O` (configuration not stated) yielded a kinetic solubility above 53.3 µg/mL.

`CCNC(=O)CCc1nc(-c2ccc(C)cc2)no1` showed a kinetic solubility above 38.9 µg/mL.

The compound `CCCc1cc(NCCCN(C)C)n2c(nc3ccccc32)c1C#N` displayed a solubility (kinetic) of 40.5 µg/mL (≈ 121 µM).

Turning to `O=C(Cc1c(Cl)cccc1Cl)OCC(=O)N1CCOCC1`, the kinetic solubility is above 49.8 µg/mL.

Compound `O=C(O)C1CSC(c2ccc(O)c([N+](=O)[O-])c2)N1` (configuration not stated) yielded a kinetic solubility above 40.5 µg/mL.

Turning to `Cc1ccc(Cl)cc1NC(=O)NCCN1CCCCC1`, the solubility (kinetic) is above 44.4 µg/mL.

In turn, `O=C(NCc1ccccc1)c1csc(-c2cccnc2)n1` yielded a kinetic solubility above 44.3 µg/mL.

With `CN1CCN(C(=O)c2ccccc2[N+](=O)[O-])CC1`, the kinetic solubility is 31.5 µg/mL (≈ 126 µM).

For `COc1cc(OC)cc(C(=O)NCC(=O)N2CCN(Cc3ccccc3)CC2)c1`, the solubility (kinetic) was above 59.6 µg/mL.

With `O=C(CN1CCCCCC1)Nc1ccc([N+](=O)[O-])cc1Br`, the solubility (kinetic) is 3 µg/mL (≈ 8.42 µM).

`O=C(CC1NCCNC1=O)NC1Cc2ccccc2C1` (configuration not stated) showed a solubility (kinetic) above 41 µg/mL.

As to `CCOc1ncccc1C(=O)OCc1c(F)cccc1Cl`, the kinetic solubility is 4.6 µg/mL (≈ 14.9 µM).

On to `COc1ccc(Cn2c(C)nc3ccc([N+](=O)[O-])cc3c2=O)cc1`, for which the kinetic solubility was 3.8 µg/mL (≈ 11.7 µM).
